Target: Recombinant human ULK1 (1-649) (Homo sapiens (Human), UniProt O75385)
Assay: ULK1 ADP Glo kinase activity assay, new method (ULKtide peptide substrate)
Conditions: 25° C., 40 minutes, read-out: ULK1 biochemical IC50
How it was run: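 Kinase activity was read as ADP production (ADP-Glo, luminescence 30 min after detection reagent) following a 40-min, 25 °C reaction of Sf9-expressed GST-ULK1 (1-649) with ULKtide substrate and ATP. Compounds ran as 12-point series starting at 10 μM; four-parameter curve fitting versus DMSO wells gave IC50.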

Sequence of Recombinant human ULK1 (1-649) (O75385 1-649): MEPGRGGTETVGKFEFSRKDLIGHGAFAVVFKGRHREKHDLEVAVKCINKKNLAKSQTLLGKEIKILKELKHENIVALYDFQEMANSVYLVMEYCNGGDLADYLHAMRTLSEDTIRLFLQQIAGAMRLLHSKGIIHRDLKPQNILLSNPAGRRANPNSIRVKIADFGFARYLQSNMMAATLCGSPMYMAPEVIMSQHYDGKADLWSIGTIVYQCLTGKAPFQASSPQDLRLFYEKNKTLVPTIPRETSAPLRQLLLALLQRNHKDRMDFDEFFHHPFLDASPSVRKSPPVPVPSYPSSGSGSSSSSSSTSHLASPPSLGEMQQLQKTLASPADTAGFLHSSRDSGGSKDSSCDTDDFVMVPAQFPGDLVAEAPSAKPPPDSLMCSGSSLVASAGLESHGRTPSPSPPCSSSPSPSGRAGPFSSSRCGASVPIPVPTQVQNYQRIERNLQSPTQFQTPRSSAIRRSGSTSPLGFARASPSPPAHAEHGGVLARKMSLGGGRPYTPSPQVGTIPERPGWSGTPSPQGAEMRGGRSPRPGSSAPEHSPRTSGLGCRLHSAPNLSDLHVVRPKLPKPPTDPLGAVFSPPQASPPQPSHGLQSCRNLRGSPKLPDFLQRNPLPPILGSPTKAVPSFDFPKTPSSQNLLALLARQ

Structure (SMILES)	IC50
CCc1cc2c(cc1Nc1ncc(C(F)(F)F)c(-c3cc4c(s3)C(=O)N(C3CC3)CCS4(=O)=O)n1)CNCC2 [Example 220, 4-cyclopropyl-7-(2-((6-ethyl-1,2,3,4-tetrahydroisoquinolin-7-yl)amino)-5-(trifluoromethyl)pyrimidin-4-yl)-3,4-dihydrothieno[2,3-f][1,4]thiazepin-5(2H)-one 1,1-dioxide]	≤ 5 nM
CCc1cc2c(cc1Nc1ncc(C(F)(F)F)c(-c3cc4c(s3)C(=O)N(C3CCC3)CCS4(=O)=O)n1)CNCC2 [Example 221, 4-cyclobutyl-7-(2-((6-ethyl-1,2,3,4-tetrahydroisoquinolin-7-yl)amino)-5-(trifluoromethyl)pyrimidin-4-yl)-3,4-dihydrothieno[2,3-f][1,4]thiazepin-5(2H)-one 1,1-dioxide]	≤ 5 nM
CCc1cc2c(cc1Nc1ncc(C(F)(F)F)c(-c3cc4c(s3)C(=O)N(C)CCS4(=O)=O)n1)CCN(CC)C2 [Example 222, 7-(2-((2,7-diethyl-1,2,3,4-tetrahydroisoquinolin-6-yl)amino)-5-(trifluoromethyl)pyrimidin-4-yl)-4-methyl-3,4-dihydrothieno[2,3-f][1,4]thiazepin-5(2H)-one 1,1-dioxide]	≤ 5 nM
CCc1cc2c(cc1Nc1ncc(C(F)(F)F)c(-c3cc4c(s3)C(=O)N(C)CCS4(=O)=O)n1)CCN(CC1CC1)C2 [Example 223, 7-(2-((2-(cyclopropylmethyl)-7-ethyl-1,2,3,4-tetrahydroisoquinolin-6-yl)amino)-5-(trifluoromethyl)pyrimidin-4-yl)-4-methyl-3,4-dihydrothieno[2,3-f][1,4]thiazepin-5(2H)-one 1,1-dioxide]	≤ 5 nM
O=C1c2sc(-c3nc(Nc4cc5c(cc4C4CC4)CCNC5)ncc3C(F)(F)F)cc2S(=O)(=O)CCN1C1CC1 [Example 224, 4-cyclopropyl-7-(2-((6-cyclopropyl-1,2,3,4-tetrahydroisoquinolin-7-yl)amino)-5-(trifluoromethyl)pyrimidin-4-yl)-3,4-dihydrothieno[2,3-f][1,4]thiazepin-5(2H)-one 1,1-dioxide]	≤ 5 nM
O=C1c2sc(-c3nc(Nc4cc5c(cc4C4CC4)CCNC5)ncc3C(F)(F)F)cc2S(=O)(=O)CCN1C1CCC1 [Example 225, 4-cyclobutyl-7-(2-((6-cyclopropyl-1,2,3,4-tetrahydroisoquinolin-7-yl)amino)-5-(trifluoromethyl)pyrimidin-4-yl)-3,4-dihydrothieno[2,3-f][1,4]thiazepin-5(2H)-one 1,1-dioxide]	≤ 5 nM
O=C1c2sc(-c3nc(Nc4cc5c(cc4Cl)CN(CCF)CC5)ncc3C(F)(F)F)cc2S(=O)(=O)CCN1C1CC1 [Example 227, 7-(2-((7-chloro-2-(2-fluoroethyl)-1,2,3,4-tetrahydroisoquinolin-6-yl)amino)-5-(trifluoromethyl)pyrimidin-4-yl)-4-cyclopropyl-3,4-dihydrothieno[2,3-f][1,4]thiazepin-5(2H)-one 1,1-dioxide]	≤ 5 nM
CCc1cc2c(cc1Nc1ncc(C(F)(F)F)c(-c3cc4c(s3)C(=O)N(C3CC3)CCS4(=O)=O)n1)CCN(CC)C2 [Example 228, 4-cyclopropyl-7-(2-((2,7-diethyl-1,2,3,4-tetrahydroisoquinolin-6-yl)amino)-5-(trifluoromethyl)pyrimidin-4-yl)-3,4-dihydrothieno[2,3-f][1,4]thiazepin-5(2H)-one 1,1-dioxide]	≤ 5 nM
O=C1c2sc(-c3nc(Nc4cc5c(cc4Cl)CCNC5)ncc3C(F)(F)F)cc2S(=O)(=O)CCN1C1COC1 [Example 230, 7-(2-((6-chloro-1,2,3,4-tetrahydroisoquinolin-7-yl)amino)-5-(trifluoromethyl)pyrimidin-4-yl)-4-(oxetan-3-yl)-3,4-dihydrothieno[2,3-f][1,4]thiazepin-5(2H)-one 1,1-dioxide]	≤ 5 nM
CN1CCS(=O)(=O)c2cc(-c3nc(Nc4cc5c(cc4C4CC4)CCNC5)ncc3C(F)(F)F)sc2C1=O [Example 231, 7-(2-((6-cyclopropyl-1,2,3,4-tetrahydroisoquinolin-7-yl)amino)-5-(trifluoromethyl)pyrimidin-4-yl)-4-methyl-3,4-dihydrothieno[2,3-f][1,4]thiazepin-5(2H)-one 1,1-dioxide]	≤ 5 nM
O=C1c2sc(-c3nc(Nc4cc5c(cc4C4CC4)CCNC5)ncc3C(F)(F)F)cc2S(=O)(=O)CCN1CC(F)(F)F [Example 232, 7-(2-((6-cyclopropyl-1,2,3,4-tetrahydroisoquinolin-7-yl)amino)-5-(trifluoromethyl)pyrimidin-4-yl)-4-(2,2,2-trifluoroethyl)-3,4-dihydrothieno[2,3-f][1,4]thiazepin-5(2H)-one 1,1-dioxide]	≤ 5 nM
CCN1CCc2cc(Nc3ncc(C(F)(F)F)c(-c4cc5c(s4)C(=O)N(C4CC4)CCS5(=O)=O)n3)c(C3CC3)cc2C1 [Example 233, 4-cyclopropyl-7-(2-((7-cyclopropyl-2-ethyl-1,2,3,4-tetrahydroisoquinolin-6-yl)amino)-5-(trifluoromethyl)pyrimidin-4-yl)-3,4-dihydrothieno[2,3-f][1,4]thiazepin-5(2H)-one 1,1-dioxide]	≤ 5 nM
O=C1c2sc(-c3nc(Nc4cc5c(cc4C4CC4)CN(CC4COC4)CC5)ncc3C(F)(F)F)cc2S(=O)(=O)CCN1C1CC1 [Example 234, 4-cyclopropyl-7-(2-((7-cyclopropyl-2-(oxetan-3-ylmethyl)-1,2,3,4-tetrahydroisoquinolin-6-yl)amino)-5-(trifluoromethyl)pyrimidin-4-yl)-3,4-dihydrothieno[2,3-f][1,4]thiazepin-5(2H)-one 1,1-dioxide]	≤ 5 nM
O=C1c2sc(-c3nc(Nc4cc5c(cc4C4CC4)CN(CC4CC4)CC5)ncc3C(F)(F)F)cc2S(=O)(=O)CCN1C1CC1 [Example 235, 4-cyclopropyl-7-(2-((7-cyclopropyl-2-(cyclopropylmethyl)-1,2,3,4-tetrahydroisoquinolin-6-yl)amino)-5-(trifluoromethyl)pyrimidin-4-yl)-3,4-dihydrothieno[2,3-f][1,4]thiazepin-5(2H)-one 1,1-dioxide]	≤ 5 nM
CN1CCS(=O)(=O)c2cc(-c3nc(Nc4cc5c(cc4C4CC4)CN(CCF)CC5)ncc3C(F)(F)F)sc2C1=O [Example 236, 7-(2-((7-cyclopropyl-2-(2-fluoroethyl)-1,2,3,4-tetrahydroisoquinolin-6-yl)amino)-5-(trifluoromethyl)pyrimidin-4-yl)-4-methyl-3,4-dihydrothieno[2,3-f][1,4]thiazepin-5(2H)-one 1,1-dioxide]	≤ 5 nM
CN1CCS(=O)(=O)c2cc(-c3nc(Nc4cc5c(cc4Cl)CN(CCF)CC5)ncc3C(F)(F)F)sc2C1=O [Example 237, 7-(2-((7-chloro-2-(2-fluoroethyl)-1,2,3,4-tetrahydroisoquinolin-6-yl)amino)-5-(trifluoromethyl)pyrimidin-4-yl)-4-methyl-3,4-dihydrothieno[2,3-f][1,4]thiazepin-5(2H)-one 1,1-dioxide]	≤ 5 nM
CN1CCS(=O)(=O)c2cc(-c3nc(Nc4ccc(N5CCNCC5)cc4C4CC4)ncc3C(F)(F)F)sc2C1=O [Example 238, 7-(2-((2-cyclopropyl-4-(piperazin-1-yl)phenyl)amino)-5-(trifluoromethyl)pyrimidin-4-yl)-4-methyl-3,4-dihydrothieno[2,3-f][1,4]thiazepin-5(2H)-one 1,1-dioxide]	5 to 10 nM
O=C1c2sc(-c3nc(Nc4ccc(N5CCNCC5)cc4C4CC4)ncc3C(F)(F)F)cc2S(=O)(=O)CCN1C1CC1 [Example 239, 4-cyclopropyl-7-(2-((2-cyclopropyl-4-(piperazin-1-yl)phenyl)amino)-5-(trifluoromethyl)pyrimidin-4-yl)-3,4-dihydrothieno[2,3-f][1,4]thiazepin-5(2H)-one 1,1-dioxide]	≤ 5 nM
O=C1c2sc(-c3nc(Nc4ccc(C5CCNCC5)cc4C4CC4)ncc3C(F)(F)F)cc2S(=O)(=O)CCN1C1CC1 [Example 240, 4-cyclopropyl-7-(2-((2-cyclopropyl-4-(piperidin-4-yl)phenyl)amino)-5-(trifluoromethyl)pyrimidin-4-yl)-3,4-dihydrothieno[2,3-f][1,4]thiazepin-5(2H)-one 1,1-dioxide]	≤ 5 nM
O=C1c2sc(-c3nc(Nc4ccc(C5CCN(CC6CC6)CC5)cc4C4CC4)ncc3C(F)(F)F)cc2S(=O)(=O)CCN1C1CC1 [Example 241, 4-cyclopropyl-7-(2-((2-cyclopropyl-4-(1-(cyclopropylmethyl)piperidin-4-yl)phenyl)amino)-5-(trifluoromethyl)pyrimidin-4-yl)-3,4-dihydrothieno[2,3-f][1,4]thiazepin-5(2H)-one 1,1-dioxide]	≤ 5 nM
CCc1cc2c(cc1Nc1ncc(C(F)(F)F)c(-c3cc4c(s3)C(=O)N(C3CC3)CCS4(=O)=O)n1)CCN(CC1CC1)C2 [Example 242, 4-cyclopropyl-7-(2-((2-(cyclopropylmethyl)-7-ethyl-1,2,3,4-tetrahydroisoquinolin-6-yl)amino)-5-(trifluoromethyl)pyrimidin-4-yl)-3,4-dihydrothieno[2,3-f][1,4]thiazepin-5(2H)-one 1,1-dioxide]	≤ 5 nM
CCc1cc2c(cc1Nc1ncc(C(F)(F)F)c(-c3cc4c(s3)C(=O)N(C3CC3)CCS4(=O)=O)n1)CCN(CCF)C2 [Example 243]	≤ 5 nM
CCN1CCc2cc(Nc3ncc(C(F)(F)F)c(-c4cc5c(s4)C(=O)N(C4COC4)CCS5(=O)=O)n3)c(C3CC3)cc2C1 [Example 244, 7-(2-((7-cyclopropyl-2-ethyl-1,2,3,4-tetrahydroisoquinolin-6-yl)amino)-5-(trifluoromethyl)pyrimidin-4-yl)-4-(oxetan-3-yl)-3,4-dihydrothieno[2,3-f][1,4]thiazepin-5(2H)-one 1,1-dioxide]	≤ 5 nM
CN1CCS(=O)(=O)c2cc(-c3nc(Nc4cc5c(cc4Cl)CN(CC4CC4)CC5)ncc3C(F)(F)F)sc2C1=O [Example 246, 7-(2-((7-chloro-2-(cyclopropylmethyl)-1,2,3,4-tetrahydroisoquinolin-6-yl)amino)-5-(trifluoromethyl)pyrimidin-4-yl)-4-methyl-3,4-dihydrothieno[2,3-f][1,4]thiazepin-5(2H)-one 1,1-dioxide]	≤ 5 nM

Source: patent publication US20250144094A1 (Erasca, Inc., priority 2021, published 2025)
